In patent publication US11813304B2, “Compounds and methods for inhibiting phosphate transport” (Ardelyx, Inc., priority 2013, dated 2023):
Like-named read-outs stand apart in the source and are kept apart here. Where a SMILES comes first, the peptide text is derived from it. Bridges are numbered along the chain shown (N, C = ends).

Tests used:
[1] = test system: intestinal absorption of a phosphate meal from the gastrointestinal tract; test: Acute phosphate tracer uptake to plasma after intragastric co-administration of phosphate test meal and compound (Example 5); type: in vivo, rat; details: rats, 15 min after intragastric co-administration
Procedure: (§1) Compounds were tested for the ability to reduce the appearance of circulating radiolabeled phosphate subsequent to administration to the alimentary canal in rats. The rate of radiolabeled phosphate tracer accumulation in the blood of rats was taken as a surrogate for the intestinal absorption rate of a phosphate meal from the gastrointestinal tract. To this end, circulating radiolabeled phosphate was monitored after intragastric co-administration to rats of a phosphate tracer meal along with example compounds. However, since some of the compounds tested potentially had properties that may hinder this assay, such as having putative gastrointestinal motility effects (e.g., delaying gastric emptying) or being purposefully chemically unstable in the gastrointestinal tract, direct intraduodenal administrations of the phosphate tracer bolus was also performed at times.
Male Sprague-Dawley rats that were 8-weeks of age were purchased from Charles River Laboratories (Hollister, Calif.). To enable blood sampling, rats were purchased with catheters surgically implanted in the jugular vein by the vendor. For studies requiring intraduodenal administration, an additional catheter was surgically implanted by the vendor to allow for direct infusion to the lumen of the duodenum. Rats were fed a normal, grain-based chow (Harlan Teklad, Madison, Wis.; 2018 Teklad Global 18% Protein Rodent Diet) containing 0.65% P, 1% Ca, and 1.5 iu/g Vitamin D3 and given water ad libitum leading up to the study.
Following an overnight fast, rats were administered a phosphate solution containing [^33P]orthophosphate (PerkinElmer, Waltham, Mass.) as a tracer with or without test articles dispersed in the solution at the indicated dosage. This dosing solution typically contained 8 mM monobasic sodium phosphate (1.25 μCi [^33P]orthophosphate/μmol), 4 mM calcium chloride, 0.4% hydroxypropyl methocellulose (w/v), and 2% dimethylsulfoxide (w/v). The dosing solutions were prepared in water for intragastric gavage at 10 ml/kg and in saline if administered intraduodenally using a previously implanted catheter at 5 ml/kg as a bolus.
(§2) Blood was sampled from the jugular vein via implanted catheters from conscious rats following dosing and the radioisotope associated with the resulting plasma was determined by scintillation counting. The relative amount of phosphate uptake from the administered dose to the plasma was assessed using body weight estimation of total circulating plasma. See Bijsterbosch et al., Experientia. 37: 381-382, 1981 (The plasma volume of the Wistar rat in relation to the body weight). The comparative amount of phosphate uptake at 15 min post-dose for each group (n=6) was expressed as a percentage relative to the study vehicle group (n=6) as mean±SEM. Statistical comparisons of the means of each test group compared to the mean of the vehicle group were determined by one-way analysis of variance followed by the Dunnett's posthoc test and P<0.05 was accepted as statistically significant (ns, not significant; *, P<0.05; **, P<0.01; and ***, P <0.001).

[2] = test system: intestinal absorption of a phosphate meal from the gastrointestinal tract; test: Acute phosphate tracer uptake to plasma after intraduodenal co-administration of phosphate test meal and compound (Example 5); type: in vivo, rat; details: rats, 15 min after intraduodenal co-administration
Procedure: as §1
Male Sprague-Dawley rats that were 8-weeks of age were purchased from Charles River Laboratories (Hollister, Calif.). To enable blood sampling, rats were purchased with catheters surgically implanted in the jugular vein by the vendor. For studies requiring intraduodenal administration, an additional catheter was surgically implanted by the vendor to allow for direct infusion to the lumen of the duodenum. […]
as §2, with “See Bijsterbosch et al., Experientia. 37: 381-382, 1981 (The plasma volume of the Wistar rat in relation to the body weight).” left out

P2Y2 receptor = P2Y2 receptor (Homo sapiens, UniProt P41231); details: cited from earlier work; for EC50: agonist potency
[3] = test system: phosphate absorption/uptake in the small intestine; test: 33P uptake to plasma in rats simultaneously dosed with 33P and test compound (Examples 2-4); type: in vivo, rat; details: for uptake of phosphate in the gastrointestinal tract of rats: figure legends FIGS. 1-3
Procedure: Experiments were performed to determine whether guanylate cyclase C (GC-C) receptor agonists can decrease phosphate absorption/uptake in the small intestine as measured by ^33P uptake. Rats were simultaneously dosed with ^33P and linaclotide as shown below:
Blood was collected at 5, 15, 30, 45, and 60 minutes post-^33P administration and plasma scintillation counting was performed.
Experiments were performed to determine whether other classes of drugs can decrease phosphate absorption/uptake in the small intestine as measured by ^33P uptake. Rats were simultaneously dosed with ^33P and either an imidazoline subtype 1 (I1) receptor agonist (moxonidine) or an adenylate cyclase agonist (the water-soluble forskolin analog NKH477) as shown below:
Experiments were performed to determine whether increasing intracellular calcium (Ca^++) by different mechanisms can also decrease phosphate absorption in the small intestine as measured by ^33P uptake. Rats were simultaneously dosed with ^33P and test compounds as shown below: […]

[4] = Rattus norvegicus, po, 0.25 h, dose 10 mg/kg, read-out: Uptake of phosphate tracer to plasma, % of study vehicle

Sequence of P2Y2 receptor (P41231 whole entry): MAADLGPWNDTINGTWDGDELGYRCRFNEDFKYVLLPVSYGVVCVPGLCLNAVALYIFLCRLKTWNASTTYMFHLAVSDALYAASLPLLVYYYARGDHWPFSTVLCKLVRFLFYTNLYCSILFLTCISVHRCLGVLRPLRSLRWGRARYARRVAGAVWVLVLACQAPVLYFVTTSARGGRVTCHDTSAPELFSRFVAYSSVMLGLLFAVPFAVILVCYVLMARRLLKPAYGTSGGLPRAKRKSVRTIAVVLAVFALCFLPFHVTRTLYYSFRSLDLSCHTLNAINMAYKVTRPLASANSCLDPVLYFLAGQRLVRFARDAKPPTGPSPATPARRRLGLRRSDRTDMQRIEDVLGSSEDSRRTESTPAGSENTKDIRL

## 6-guanyl NECA
[1]; dose 10 mg/kg
  Uptake of phosphate tracer to plasma, % of study vehicle: >75%

## CSc1nc(N)c2ncn([C@@H]3O[C@H](COP(=O)(O)OP(=O)(O)O)[C@@H](O)[C@H]3O)c2n1 [2-methylthio-ADP]
[2]; dose 10 mg/kg
  Uptake of phosphate tracer to plasma, % of study vehicle: >75%

## N[C@@H]1[C@H](O)[C@@H](COP(=O)(O)OP(=O)(O)OP(=O)(O)O)O[C@H]1n1ccc(=O)[nH]c1=S [2′-amino-2-thio-UTP]
P2Y2 receptor; P2Y2 versus P2Y4
  selectivity, P2Y2-selective versus P2Y4: 300 fold
P2Y2 receptor
  EC50: 8 nM

## O=c1[nH]c(=O)n([C@@H]2O[C@H](COP(=O)(O)OP(=O)(O)OP(=O)(O)O)[C@@H](O)[C@H]2O)cc1I [5-iodo-UTP]
P2Y2 receptor
  EC50: 830 nM

## CCCCC(C)(C)[C@H](O)/C=C/[C@H]1[C@H](O)CC(=O)[C@@H]1C/C=C\CCCC(=O)O [16,16-dimethyl-PGE2, 16,16-dimethyl PGE2]
[1]; dose 3 μg/kg
  Uptake of phosphate tracer to plasma, % of study vehicle: >75%

## NC[C@@H]1O[C@H](c2ccccc2)Cc2c1ccc(O)c2O [A68930]
[1]; dose 10 mg/kg
  Uptake of phosphate tracer to plasma, % of study vehicle: 50-75%

## CC[C@H](C)[C@@H]1NC(=O)[C@H](CCCNC(=N)N)NC(=O)[C@H](CC(=O)O)NC(=O)[C@H](CCSC)NC(=O)[C@H](CCCNC(=N)N)NC(=O)CNC(=O)CNC(=O)[C@H](Cc2ccccc2)NC(=O)[C@@H](NC(=O)[C@H](CO)NC(=O)[C@H](CO)NC(=O)[C@H](CCCNC(=N)N)NC(=O)[C@H](CCCNC(=N)N)NC(=O)[C@H](CC(C)C)NC(=O)[C@@H](N)CO)CSSC[C@@H](C(=O)N[C@@H](CC(N)=O)C(=O)N[C@@H](CO)C(=O)N[C@@H](Cc2ccccc2)C(=O)N[C@@H](CCCNC(=N)N)C(=O)N[C@@H](Cc2ccc(O)cc2)C(=O)O)NC(=O)CNC(=O)[C@H](CC(C)C)NC(=O)CNC(=O)[C@H](CO)NC(=O)[C@H](CCC(N)=O)NC(=O)[C@H](C)NC(=O)CNC1=O [Atrial natriuretic peptide]
[2]; dose 0.2 mg/kg
  Uptake of phosphate tracer to plasma, % of study vehicle: >75%

## N#Cc1c(N)nc(SCC(N)=O)c(C#N)c1-c1ccc(OCC2CC2)cc1 [BAY 60-6583]
[1]; dose 10 mg/kg
  Uptake of phosphate tracer to plasma, % of study vehicle: >75%

## Nc1nc(-c2nn(Cc3ccccc3F)c3ncccc23)ncc1C1CC1 [Bay 41-2271]
[1]; dose 10 mg/kg
  Uptake of phosphate tracer to plasma, % of study vehicle: >75%

## O=C(O)CCCCN(CCc1ccccc1OCc1ccc(CCc2ccccc2)cc1)Cc1ccc(C(=O)O)cc1 [Bay 58-2667]
[1]; dose 10 mg/kg
  Uptake of phosphate tracer to plasma, % of study vehicle: 50-75%

## CC(C[N+](C)(C)C)OC(N)=O (stereo not drawn) [Bethanechol, carbamoyl-β-methlycholine]
[1]; [4]
  response vs control in vivo at 10 mg/kg: > 75%

## CCN[C@H]1C[C@H](C)S(=O)(=O)c2sc(S(N)(=O)=O)cc21 [Dorzolamide, dorzolamide]
[1]; Rattus norvegicus, po, 0.25 h, dose 20 mg/kg, read-out: Uptake of phosphate tracer to plasma, % of study vehicle
  response vs control in vivo at 20 mg/kg: 50 to 75%

## C[C@@H]1NC(=O)[C@@H]2CCCN2C(=O)[C@H](CC(N)=O)NC(=O)[C@@H]2CSSC[C@H](N)C(=O)N[C@H]3CSSC[C@H](NC1=O)C(=O)N[C@@H]([C@@H](C)O)C(=O)NCC(=O)N[C@H](C(=O)N[C@@H](Cc1ccc(O)cc1)C(=O)O)CSSC[C@H](NC(=O)[C@H](Cc1ccc(O)cc1)NC(=O)[C@H](CCC(=O)O)NC3=O)C(=O)N2 [Linaclotide] (H-CCEYCCNPACTGCY-OH; disulfide 1-6, 2-10, 5-13)
[1]; dose 0.03 mg/kg
  Uptake of phosphate tracer to plasma, % of study vehicle: 50-75%
[1]; dose 0.1 mg/kg
  Uptake of phosphate tracer to plasma, % of study vehicle: 50-75%
[1]; dose 0.3 mg/kg
  Uptake of phosphate tracer to plasma, % of study vehicle: 25-50%
[3]
  uptake of phosphate in the gastrointestinal tract of rats: reduces
[3]; rats, both doses, 0.1 and 0.3 mg/kg, blood 5-60 min post-33P
  absorption of phosphate in the gastrointestinal tract (plasma 33P): decreased

## COc1ccc2[nH]cc(CCNC(C)=O)c2c1 [Melatonin, N-acetyl-5-methoxytryptamine]
[1]; [4]
  response vs control in vivo at 10 mg/kg: 50 to 75%

## COc1nc(C)nc(Cl)c1N=C1NCCN1 [Moxonidine, moxonidine]
[1]; Rattus norvegicus, po, 0.25 h, dose 2 mg/kg, read-out: Uptake of phosphate tracer to plasma, % of study vehicle
  response vs control in vivo at 2 mg/kg: 50 to 75%
[1]; Rattus norvegicus, po, 0.25 h, dose 6 mg/kg, read-out: Uptake of phosphate tracer to plasma, % of study vehicle
  response vs control in vivo at 6 mg/kg: 25 to 50%
[3]
  uptake of phosphate in the gastrointestinal tract of rats: reduce

## O=c1[nH]c(=S)ccn1[C@@H]1O[C@H](COP(=O)(O)OP(=O)(O)C(F)(F)P(=O)(O)O)[C@@H](O)[C@H]1O [PSB1114]
[2]; dose 15 mg/kg
  Uptake of phosphate tracer to plasma, % of study vehicle: >75%

## COCCCN1CCC(NC(=O)c2cc(Cl)c(N)c3c2OCC3)CC1 [Prucalopride, prucalopride]
[1]; [4]
  response vs control in vivo at 10 mg/kg: > 75%

## C1COC(NC(C2CC2)C2CC2)=N1 [Rilmenidine, rilmenidine]
[1]; Rattus norvegicus, po, 0.25 h, dose 3 mg/kg, read-out: Uptake of phosphate tracer to plasma, % of study vehicle
  response vs control in vivo at 3 mg/kg: > 75%

## O=c1ccn([C@@H]2O[C@H](COP(=O)(O)OP(=O)(O)OP(=O)(O)OP(=O)(O)OC[C@H]3O[C@@H](n4ccc(=O)[nH]c4=O)[C@H](O)[C@@H]3O)[C@@H](O)[C@H]2O)c(=O)[nH]1 [Up4U]
[1]; Rattus norvegicus, po, 0.25 h, dose 5 mg/kg, read-out: Uptake of phosphate tracer to plasma, % of study vehicle
  response vs control in vivo at 5 mg/kg: > 75%
[1]; Rattus norvegicus, po, 0.25 h, dose 15 mg/kg, read-out: Uptake of phosphate tracer to plasma, % of study vehicle
  response vs control in vivo at 15 mg/kg: > 75%
[1]; Rattus norvegicus, po, 0.25 h, dose 50 mg/kg, read-out: Uptake of phosphate tracer to plasma, % of study vehicle
  response vs control in vivo at 50 mg/kg: > 75%
[3]
  uptake of phosphate in the gastrointestinal tract of rats: reduces
[3]; rats, 15 mg/kg
  33P uptake/absorption: significantly decreased

## CCOC(=O)C1=C[C@]2(CC)CCCN3CCc4c(n1c1ccccc41)[C@@H]32 [Vinpocetine, vinpocetine]
[1]; Rattus norvegicus, po, 0.25 h, dose 1 mg/kg + 0.03 mg/kg Linacolitde, read-out: Uptake of phosphate tracer to plasma, % of study vehicle
  response vs control in vivo at 1 mg/kg: 50 to 75%
[1]; Rattus norvegicus, po, 0.25 h, dose 1 mg/kg, read-out: Uptake of phosphate tracer to plasma, % of study vehicle
  response vs control in vivo at 1 mg/kg: > 75%
[1]; Rattus norvegicus, po, 0.25 h, dose 10 mg/kg + 0.03 mg/kg Linacolitde, read-out: Uptake of phosphate tracer to plasma, % of study vehicle
  response vs control in vivo at 10 mg/kg: 25 to 50%
[1]; [4]
  response vs control in vivo at 10 mg/kg: > 75%
